Test results: patent US20220071944A1, “Combination Treatment for Solid Tumors Using Docetaxel and a CYP3A Inhibitor” (Modra Pharmaceuticals B.V., priority 2018, published 2022)
Like-named read-outs stand apart in the source and are kept apart here.

Assays:
[1] = Phase IB/IIA trial M17DOC in mCRPC: docetaxel plasma pharmacokinetics; set-up: species or system human; conditions: in vivo, po
Description: A multicenter clinical phase IB/IIA study was conducted in mCRPC (M17DOC), wherein ModraDoc006, an oral docetaxel formulation was combined with ritonavir (ModraDoc006/r), in metastasized castration-resistant prostate cancer (mCRPC).
The study included patients diagnosed with metastasized castration-resistant prostate cancer (mCRPC), dosed in a bi-daily once weekly (BIDW) dosing schedule at 4 dose levels (see table below).

[2] = every three weeks IV; cited from earlier work
[3] = Weekly intravenous docetaxel 35 mg/m2 pharmacokinetics (Baker et al. 2004); assay type: in vivo, human; conditions: 35 mg/m2 in 0.5 h vs oral in patients with solid tumors (not prostate)
[4] = IV docetaxel AUC in mCRPC vs other tumors (De Vries Schultink et al. meta-analysis); assay type: in vivo, human
[5] = weekly docetaxel 35 mg/m2 as 0.5 h intravenous infusion; cited from earlier work

docetaxel clearance in mCRPC patients vs patients with other solid tumors [1]: higher clearance
CMAX of intravenous docetaxel relative to oral ModraDoc006/r 30-20/100-100 [3]: ten-fold higher
ratio of AUCs for IV docetaxel in mCPRC patients vs other tumors ([4]; 1820/3300): 55%
AUC ([4]; male, human, in vivo, iv, weekly equivalent, mCRPC, read-out: weekly AUC of IV docetaxel in mCRPC patients (q3w AUC divided by 3)): ~600 ng·h/mL
SMILES: CC(=O)O[C@@]12CO[C@@H]1C[C@H](O)[C@@]1(C)C(=O)[C@H](O)C3=C(C)[C@@H](OC(=O)[C@H](O)[C@@H](NC(=O)OC(C)(C)C)c4ccccc4)C[C@@](O)([C@@H](OC(=O)c4ccccc4)[C@H]21)C3(C)C [docetaxel]
q3w AUC of IV docetaxel in mCRPC patients [2]: 1820 ng·h/mL
AUC [5]: 480 ± 410 ng·h/mL
CMAX [5]: 1930 ± 600 ng/mL
